In test [1] the test system is NQO1 specific enzyme activity in BEAS-2B cells (marker for NRF2 activation). The test is described as follows: BEAS-2B NQO1 MTT Assay. Type of test: cell-based. Particulars: Homo sapiens, BEAS-2B, 48 h, NQO1 specific activity induction, 48 hours with compound. A digest of the protocol: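 BEAS-2B cells were plated at 250,000 cells/mL and treated after overnight culture with compound for 48 h at 37° C, 5% CO2. NQO1 activity in crude lysates was read kinetically as MTT reduction at 570 nm over 30 min. pEC50 comes from ΔOD/min versus log concentration with a 3-parameter fit.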

In test [2] the test system is rats on a choline-deficient L-amino acid-defined diet. As to conditions: cited from earlier work.
The subject of test [3] is COPD macrophages and alveolar macrophages from cigarette smoke-exposed mice. Particulars: cited from earlier work.
Test [4] relates to NRF2 wild-type and KO mice. As to conditions: after administration, NRF2 wild-type vs KO mice; cited from earlier work.
Test [5] deals with rats in a cerebral ischemia-reperfusion model. Particulars: cited from earlier work.

Where a name gives a salt, the structure may show the parent alone. Bounds are passed on as bounds.

For `CCn1nnc2c(F)c([C@H](c3cc(CN4C[C@@H](C)Cc5ccc(C(F)(F)F)cc5S4(=O)=O)c(Cl)s3)C(C)(C)C(=O)O)ccc21` [Example 57, (R)-3-(5-Chloro-4-(((S)-4-methyl-1,1-dioxido-8-(trifluoromethyl)-4,5-dihydrobenzo[f][1,2]thiazepin-2(3H)-yl)methyl)thiophen-2-yl)-3-(1-ethyl-4-fluoro-1H-benzo[d][1,2,3]triazol-5-yl)-2,2-dimethylpropanoic Acid], the EC50 in test [1] was less than 1 nM. In the case of `CC[C@@H]1CN(Cc2cc([C@H](CCc3cn(CC)nn3)C(C)(C)C(=O)O)sc2C)S(=O)(=O)c2cccnc2O1` [Example 58, (R)-3-(4-(((R)-4-Ethyl-1,1-dioxido-3,4-dihydro-2H-pyrido[2,3-b][1,4,5]oxathiazepin-2-yl)methyl)-5-methylthiophen-2-yl)-5-(1-ethyl-1H-1,2,3-triazol-4-yl)-2,2-dimethylpentanoic Acid], in test [1], the EC50 was 1 to 10 nM. Same read-out and setting: then `CC[C@@H]1CN(Cc2cc([C@@H](CCc3cn(CC)nn3)C(C)(C)C(=O)O)sc2C)S(=O)(=O)c2cccnc2O1` [Example 59, (S)-3-(4-(((R)-4-Ethyl-1,1-dioxido-3,4-dihydro-2H-pyrido[2,3-b][1,4,5]oxathiazepin-2-yl)methyl)-5-methylthiophen-2-yl)-5-(1-ethyl-1H-1,2,3-triazol-4-yl)-2,2-dimethylpentanoic Acid], with 1 to 10 nM. On the same count and under the same terms, then `CC[C@@H]1CN(Cc2cc([C@@H](c3ccc4c(nnn4CC)c3C)C(C)(C)C(=O)O)sc2C)Cc2ncccc2O1` [Example 60, (S)-3-(4-(((R)-2-Ethyl-2,3-dihydropyrido[2,3-f][1,4]oxazepin-4(5H)-yl)methyl)-5-methylthiophen-2-yl)-3-(1-ethyl-4-methyl-1H-benzo[d][1,2,3]triazol-5-yl)-2,2-dimethylpropanoic Acid], with 1 to 10 nM. For the compound `CCn1cc(CC[C@@H](c2cc(CN3C[C@@H](C)Cc4ncccc4S3(=O)=O)c(C)s2)C(C)(C)C(=O)O)nn1` [Example 61, (R)-5-(1-Ethyl-1H-1,2,3-triazol-4-yl)-2,2-dimethyl-3-(5-methyl-4-(((S)-4-methyl-1,1-dioxido-4,5-dihydropyrido[2,3-f][1,2]thiazepin-2(3H)-yl)methyl)thiophen-2-yl)pentanoic Acid], in test [1], the EC50 was in the range of 1 to 10 nM.

For `CCn1cc(CC[C@H](c2cc(CN3C[C@@H](C)Cc4ncccc4S3(=O)=O)c(C)s2)C(C)(C)C(=O)O)nn1` [Example 62, (S)-5-(1-Ethyl-1H-1,2,3-triazol-4-yl)-2,2-dimethyl-3-(5-methyl-4-(((S)-4-methyl-1,1-dioxido-4,5-dihydropyrido[2,3-f][1,2]thiazepin-2(3H)-yl)methyl)thiophen-2-yl)pentanoic Acid], the EC50 in test [1] lay within 1 to 10 nM. Same read-out and setting: then `CC[C@@H]1CN(Cc2cc([C@@H](CCc3cn(CC)nn3)C(C)(C)C(=O)O)sc2C)S(=O)(=O)c2ccccc2O1` [Example 63, (S)-3-(4-(((R)-4-Ethyl-1,1-dioxido-3,4-dihydro-2H-benzo[b][1,4,5]oxathiazepin-2-yl)methyl)-5-methylthiophen-2-yl)-5-(1-ethyl-1H-1,2,3-triazol-4-yl)-2,2-dimethylpentanoic Acid], with 1 to 10 nM; and `CC[C@@H]1CN(Cc2cc([C@H](CCc3cn(CC)nn3)C(C)(C)C(=O)O)sc2C)S(=O)(=O)c2ccccc2O1` [Example 64, (R)-3-(4-(((R)-4-Ethyl-1,1-dioxido-3,4-dihydro-2H-benzo[b][1,4,5]oxathiazepin-2-yl)methyl)-5-methylthiophen-2-yl)-5-(1-ethyl-1H-1,2,3-triazol-4-yl)-2,2-dimethylpentanoic Acid], with less than 1 nM. The same measure, in the same setting: with `CC[C@@H]1CN(Cc2cc([C@@H](c3ccc4c(nnn4CC)c3C)C(C)(C)C(=O)Nc3nnn[nH]3)sc2C)S(=O)(=O)c2ccccc2O1` [Example 65, (S)-3-(4-(((R)-4-Ethyl-1,1-dioxido-3,4-dihydro-2H-benzo[b][1,4,5]oxathiazepin-2-yl)methyl)-5-methylthiophen-2-yl)-3-(1-ethyl-4-methyl-1H-benzo[d][1,2,3]triazol-5-yl)-2,2-dimethyl-N-(1H-tetrazol-5-yl)propanamide, 0.10Formic Acid Salt] the figure was 10 to 100 nM.

Turning to `O=C(NCc1ccccn1)Nc1nnc(-c2ccco2)o1` [NK-252], the “progression of histologic abnormalities, especially hepatic fibrosis” value in test [2] is on record as “significantly attenuated progression”. For the compound `C[S+]([O-])CCCCN=C=S` (stereo not drawn) [Sulforaphane], in test [3] (COPD macrophages and alveolar macrophages from cigarette smoke-exposed mice), the “expression of Macrophage Receptor with Collagenous structure (MARCO)” value is reported as “increases the expression of Macrophage Receptor with Collagenous structure (MARCO)”. Further, the “bacterial phagocytosis (Pseudomonas aeruginosa, non-typable Haemophilus influenzae) and bacterial clearance” value in test [3] (ex vivo and in vivo) is on record as “improving in these cells bacterial phagocytosis”. For the compound `Cc1c(-c2cnccn2)ssc1=S` [oltipraz], the “progression of histologic abnormalities, especially hepatic fibrosis” value in test [2] is given as “significantly attenuated progression”. Regarding `CC(C)(C)c1cc(O)ccc1O` [tBHQ, tert-butylhydroquinone], in test [4], the cortical glutathione levels entry is reported as “increased in NRF2 wild-type but not KO mice”. Moreover, the cortical damage entry in test [5] is listed as “reduced cortical damage”.

Broadly, the EC50 is the concentration that produces a half-maximal response.

(Values after patent US11117905B2, “Bisaryl heterocycles as NRF2 activators” (GLAXOSMITHKLINE INTELLECTUAL PROPERTY DEVELOPMENT LIMITED, priority 2016, dated 2021).)
